Data from PMC8636556, “Cloning, expression, purification and characterization of chitin deacetylase extremozyme from halophilic Bacillus aryabhattai B8W22” (3 Biotech, 2021).

Target: T1, BaCDA (Priestia aryabhattai, UniProt A0A7W3NGR0)
T1 construct: gene HNP21_005748
Test: biochemical
Settings: read-out: Relative activity (%) / Ethylene glycol chitin

T1 sequence (A0A7W3NGR0 1-254): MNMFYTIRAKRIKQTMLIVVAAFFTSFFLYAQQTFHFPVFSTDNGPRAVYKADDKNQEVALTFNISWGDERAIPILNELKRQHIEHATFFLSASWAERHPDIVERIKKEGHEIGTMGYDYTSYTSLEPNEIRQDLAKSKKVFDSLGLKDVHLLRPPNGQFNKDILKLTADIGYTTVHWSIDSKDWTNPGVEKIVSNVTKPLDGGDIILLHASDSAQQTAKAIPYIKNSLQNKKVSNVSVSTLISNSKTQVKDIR

With CC(=O)O [acetate] the activity at 10000 µM was 49.9 ± 3.89%.
